Target: Protein farnesyltransferase (Homo sapiens, UniProt P49354+P49356)
Assay: Inhibition of ras Farnesyltransferase
Assay type: protein-complex assay

Row | IC50 | SMILES
1 | 0.9 µM | CC(C)=CCC/C(C)=C/CC/C(C)=C/CC(CCC(=O)N[C@H](C(=O)N[C@@H](CC(C)C)C(=O)N[C@@H](CO)C(=O)O)C(C)C)C(=O)O (some centres undefined)
2 | 10 µM | CCCCCCCCCCCCC(CCC(=O)N[C@H](C(=O)N[C@@H](CC(C)C)C(=O)N[C@@H](CO)C(=O)O)C(C)C)C(=O)O (some centres undefined)
3 | > 360 µM | CC(C)=CCC/C(C)=C/CC/C(C)=C/CCCCC(=O)N[C@H](C(=O)N[C@@H](CC(C)C)C(=O)N[C@@H](CO)C(=O)O)C(C)C
4 | 1.2 µM | CC(C)=CCC/C(C)=C/CC/C(C)=C/CC(CCCC(=O)N[C@H](C(=O)N[C@@H](CC(C)C)C(=O)N[C@@H](CO)C(=O)O)C(C)C)C(=O)O (some centres undefined)

Second part, the compound before the results:

Row | SMILES | IC50
5 | CC(C)=CCC/C(C)=C/CC/C(C)=C/CNC(=O)C(CCC(=O)N[C@H](C(=O)N[C@@H](CC(C)C)C(=O)N[C@@H](CO)C(=O)O)C(C)C)C(=O)O (some centres undefined) | 4.4 µM
6 | CC(C)=CCC/C(C)=C/CC/C(C)=C/CC(CCCCC(=O)N[C@H](C(=O)N[C@@H](CC(C)C)C(=O)N[C@@H](CO)C(=O)O)C(C)C)C(=O)O (some centres undefined) | 1.8 µM
7 | CC(C)=CCC/C(C)=C/CC/C(C)=C/CC(C[C@H](NC(=O)OC(C)(C)C)C(=O)N[C@H](C(=O)N[C@@H](CC(C)C)C(=O)N[C@@H](CO)C(=O)O)C(C)C)C(=O)O (some centres undefined) | 20 µM
8 | CC(C)=CCC/C(C)=C/CC/C(C)=C/CN[C@@H](CCC(=O)N[C@H](C(=O)N[C@@H](CC(C)C)C(=O)N[C@@H](CO)C(=O)O)C(C)C)C(=O)O | 3.4 µM
9 | CC(C)=CCC/C(C)=C/CC/C(C)=C/CC(CCC(=O)N[C@H](C(=O)N[C@@H](CC(C)C)C(=O)N[C@@H](CO)C(=O)O)C(C)C)C(=O)NCP(=O)(O)O (some centres undefined) | 0.15 µM
10 | CC(C)=CCC/C(C)=C/CC/C(C)=C/CN[C@H](CCC(=O)N[C@H](C(=O)N[C@@H](CC(C)C)C(=O)N[C@@H](CO)C(=O)O)C(C)C)C(=O)O | 14 µM
11 | CC(C)=CCC/C(C)=C/CC/C(C)=C/CC(CC(=O)N[C@H](C(=O)N[C@@H](CC(C)C)C(=O)N[C@@H](CO)C(=O)O)C(C)C)C(=O)O (some centres undefined) | 4.5 µM
12 | CCOC(=O)C(C/C=C(\C)CC/C=C(\C)CCC=C(C)C)CCC(=O)N[C@H](C(=O)N[C@@H](CC(C)C)C(=O)N[C@@H](CO)C(=O)O)C(C)C (some centres undefined) | > 360 µM
13 | CC(C)=CCC/C(C)=C/CC/C(C)=C/C(=O)N[C@@H](CCC(=O)N[C@H](C(=O)N[C@@H](CC(C)C)C(=O)N[C@@H](CO)C(=O)O)C(C)C)C(=O)O (stereo in doubt; 29 (D)) | 3.4 µM
14 | CC(C)=CCC/C(C)=C/CC/C(C)=C/C(=O)N[C@@H](CCC(=O)N[C@H](C(=O)N[C@@H](CC(C)C)C(=O)N[C@@H](CO)C(=O)O)C(C)C)C(=O)O (stereo in doubt; 28 (L)) | 0.033 µM

Source: ChEMBL document CHEMBL1152035, “Rational design of potent carboxylic acid based bisubstrate inhibitors of ras farnesyl protein transferase” (Bioorg Med Chem Lett, 1994)
